Data from ChEMBL document CHEMBL3627674, “Discovery of wrightiadione as a novel template for the TrkA kinase inhibitors” (Bioorg Med Chem Lett, 2015).

Columns and labels:
[1] = biological target: MAP kinase-interacting serine/threonine-protein kinase 1 (Homo sapiens) (UniProt Q9BUB5); assay: Inhibition of MKNK1 (unknown origin) assessed as remaining activity at 10 uM by high-throughput assay relative to control
[2] = biological target: Mitogen-activated protein kinase kinase kinase 4 (Homo sapiens) (UniProt Q9Y6R4); assay: Inhibition of MAP3K4 (unknown origin) assessed as remaining activity at 10 uM by high-throughput assay relative to control
[3] = biological target: Serine/threonine-protein kinase PAK 4 (Homo sapiens) (UniProt O96013); assay: Inhibition of PAK4 (unknown origin) assessed as remaining activity at 10 uM by high-throughput assay relative to control
[4] = biological target: Proto-oncogene tyrosine-protein kinase Src (Homo sapiens) (UniProt P12931); assay: Inhibition of SRC (unknown origin) assessed as remaining activity at 10 uM by high-throughput assay relative to control
Chain of Proto-oncogene tyrosine-protein kinase Src (Homo sapiens) (P12931 2-536 limits assumed): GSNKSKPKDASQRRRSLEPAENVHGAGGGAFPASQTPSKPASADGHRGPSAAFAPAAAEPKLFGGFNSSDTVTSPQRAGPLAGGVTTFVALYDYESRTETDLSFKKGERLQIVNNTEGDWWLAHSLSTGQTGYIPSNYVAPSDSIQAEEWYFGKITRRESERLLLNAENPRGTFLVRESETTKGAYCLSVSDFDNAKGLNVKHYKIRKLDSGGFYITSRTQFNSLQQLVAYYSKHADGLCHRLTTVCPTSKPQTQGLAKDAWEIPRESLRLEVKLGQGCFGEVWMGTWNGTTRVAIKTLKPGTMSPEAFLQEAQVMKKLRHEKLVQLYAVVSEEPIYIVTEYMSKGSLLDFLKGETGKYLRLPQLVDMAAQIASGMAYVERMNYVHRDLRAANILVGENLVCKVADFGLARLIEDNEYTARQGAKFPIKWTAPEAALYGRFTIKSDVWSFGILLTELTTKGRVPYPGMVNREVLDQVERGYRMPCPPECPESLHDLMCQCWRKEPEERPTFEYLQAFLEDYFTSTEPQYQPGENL

[5] = biological target: Tyrosine-protein kinase JAK2 (Homo sapiens) (UniProt O60674); assay: Inhibition of JAK2 JH1 catalytic domain (unknown origin) assessed as remaining activity at 10 uM by high-throughput assay relative to control
[6] = biological target: Aurora kinase A (Homo sapiens) (UniProt O14965); assay: Inhibition of AURKA (unknown origin) assessed as remaining activity at 10 uM by high-throughput assay relative to control
[7] = biological target: Serine/threonine-protein kinase PAK 1 (Homo sapiens) (UniProt Q13153); assay: Inhibition of PAK1 (unknown origin) assessed as remaining activity at 10 uM by high-throughput assay relative to control
[8] = biological target: SRSF protein kinase 3 (Homo sapiens) (UniProt Q9UPE1); assay: Inhibition of SRPK3 (unknown origin) assessed as remaining activity at 10 uM by high-throughput assay relative to control
[9] = biological target: Proto-oncogene tyrosine-protein kinase receptor Ret (Homo sapiens) (UniProt P07949); assay: Inhibition of RET (unknown origin) assessed as remaining activity at 10 uM by high-throughput assay relative to control
[10] = biological target: Serine/threonine-protein kinase PAK 2 (Homo sapiens) (UniProt Q13177); assay: Inhibition of PAK2 (unknown origin) assessed as remaining activity at 10 uM by high-throughput assay relative to control
[11] = biological target: Cyclin-dependent kinase 3 (Homo sapiens) (UniProt Q00526); assay: Inhibition of CDK3 (unknown origin) assessed as remaining activity at 10 uM by high-throughput assay relative to control
Chain of Cyclin-dependent kinase 3 (Homo sapiens) (Q00526 whole entry, looked up): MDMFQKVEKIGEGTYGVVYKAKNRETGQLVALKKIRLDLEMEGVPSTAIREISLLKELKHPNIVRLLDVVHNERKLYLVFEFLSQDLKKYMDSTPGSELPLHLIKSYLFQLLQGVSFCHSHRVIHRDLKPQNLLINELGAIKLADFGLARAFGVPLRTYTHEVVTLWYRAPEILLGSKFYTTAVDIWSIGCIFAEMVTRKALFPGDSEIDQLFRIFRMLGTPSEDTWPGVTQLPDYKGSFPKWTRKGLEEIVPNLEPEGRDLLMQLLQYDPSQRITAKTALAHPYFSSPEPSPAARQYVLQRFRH

[12] = biological target: MAP kinase-interacting serine/threonine-protein kinase 2 (Homo sapiens) (UniProt Q9HBH9); assay: Inhibition of MKNK2 (unknown origin) assessed as remaining activity at 10 uM by high-throughput assay relative to control
Chain of MAP kinase-interacting serine/threonine-protein kinase 2 (Homo sapiens) (Q9HBH9 whole entry, looked up, the tested form may be a part): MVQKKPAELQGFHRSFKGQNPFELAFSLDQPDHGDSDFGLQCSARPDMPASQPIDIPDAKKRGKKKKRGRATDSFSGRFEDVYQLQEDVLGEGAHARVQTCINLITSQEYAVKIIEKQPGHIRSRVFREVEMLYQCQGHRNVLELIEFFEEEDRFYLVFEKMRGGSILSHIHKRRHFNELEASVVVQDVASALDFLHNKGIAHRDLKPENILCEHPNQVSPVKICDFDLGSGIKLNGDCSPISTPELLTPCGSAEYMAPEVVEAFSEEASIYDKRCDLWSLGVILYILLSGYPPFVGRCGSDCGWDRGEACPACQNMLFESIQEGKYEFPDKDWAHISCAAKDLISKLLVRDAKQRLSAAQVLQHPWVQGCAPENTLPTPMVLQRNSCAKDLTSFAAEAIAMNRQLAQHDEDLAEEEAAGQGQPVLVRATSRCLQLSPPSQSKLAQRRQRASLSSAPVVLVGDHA

[13] = biological target: Phosphatidylinositol 4-phosphate 3-kinase C2 domain-containing subunit beta (Homo sapiens) (UniProt O00750); assay: Inhibition of PIK3C2B (unknown origin) assessed as remaining activity at 10 uM by high-throughput assay relative to control
Chain of Phosphatidylinositol 4-phosphate 3-kinase C2 domain-containing subunit beta (Homo sapiens) (O00750 whole entry, the tested form may be a part): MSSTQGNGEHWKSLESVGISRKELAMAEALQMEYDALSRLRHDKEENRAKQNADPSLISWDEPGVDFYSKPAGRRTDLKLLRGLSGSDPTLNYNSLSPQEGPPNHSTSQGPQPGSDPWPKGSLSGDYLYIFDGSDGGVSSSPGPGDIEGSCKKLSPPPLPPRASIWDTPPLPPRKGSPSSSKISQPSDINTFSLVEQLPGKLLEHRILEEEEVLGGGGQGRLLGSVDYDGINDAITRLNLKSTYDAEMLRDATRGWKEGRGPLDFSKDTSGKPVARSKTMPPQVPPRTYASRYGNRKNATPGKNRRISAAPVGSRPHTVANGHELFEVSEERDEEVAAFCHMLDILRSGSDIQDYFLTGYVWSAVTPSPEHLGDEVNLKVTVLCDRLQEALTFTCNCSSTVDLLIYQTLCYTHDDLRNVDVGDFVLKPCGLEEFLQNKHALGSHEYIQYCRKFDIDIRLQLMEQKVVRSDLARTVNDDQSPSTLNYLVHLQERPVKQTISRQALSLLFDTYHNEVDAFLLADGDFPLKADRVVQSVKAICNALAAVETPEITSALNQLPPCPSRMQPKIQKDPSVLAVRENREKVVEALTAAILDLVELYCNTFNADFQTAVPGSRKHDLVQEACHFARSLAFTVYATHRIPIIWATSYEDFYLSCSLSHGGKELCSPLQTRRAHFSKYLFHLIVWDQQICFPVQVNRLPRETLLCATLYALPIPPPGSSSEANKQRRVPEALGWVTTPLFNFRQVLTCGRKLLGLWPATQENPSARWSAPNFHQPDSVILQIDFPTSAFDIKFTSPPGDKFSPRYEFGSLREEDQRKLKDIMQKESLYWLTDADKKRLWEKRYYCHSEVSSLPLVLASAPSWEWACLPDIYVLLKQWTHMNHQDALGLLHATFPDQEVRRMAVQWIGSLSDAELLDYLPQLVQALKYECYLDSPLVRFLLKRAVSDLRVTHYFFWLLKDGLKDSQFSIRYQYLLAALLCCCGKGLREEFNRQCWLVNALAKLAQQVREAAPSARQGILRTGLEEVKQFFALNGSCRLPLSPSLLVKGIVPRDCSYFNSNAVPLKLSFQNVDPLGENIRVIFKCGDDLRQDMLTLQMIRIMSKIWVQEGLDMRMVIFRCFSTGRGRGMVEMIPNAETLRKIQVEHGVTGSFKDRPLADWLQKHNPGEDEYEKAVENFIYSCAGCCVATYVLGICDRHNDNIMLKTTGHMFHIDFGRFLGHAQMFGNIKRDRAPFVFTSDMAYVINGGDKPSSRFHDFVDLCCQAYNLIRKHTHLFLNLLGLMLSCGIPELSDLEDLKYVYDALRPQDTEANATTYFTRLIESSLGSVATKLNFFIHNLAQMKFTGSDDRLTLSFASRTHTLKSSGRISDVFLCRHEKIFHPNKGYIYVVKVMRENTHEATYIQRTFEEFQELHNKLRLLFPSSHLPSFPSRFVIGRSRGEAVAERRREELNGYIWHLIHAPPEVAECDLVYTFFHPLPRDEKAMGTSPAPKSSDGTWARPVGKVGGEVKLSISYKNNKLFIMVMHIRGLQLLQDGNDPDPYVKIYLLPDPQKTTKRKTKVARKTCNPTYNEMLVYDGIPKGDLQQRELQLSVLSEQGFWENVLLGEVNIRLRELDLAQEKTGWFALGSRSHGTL

[14] = biological target: Mitogen-activated protein kinase 3 (Homo sapiens) (UniProt P27361); assay: Inhibition of ERK1 (unknown origin) assessed as remaining activity at 10 uM by high-throughput assay relative to control
Chain of Mitogen-activated protein kinase 3 (Homo sapiens) (P27361 whole entry): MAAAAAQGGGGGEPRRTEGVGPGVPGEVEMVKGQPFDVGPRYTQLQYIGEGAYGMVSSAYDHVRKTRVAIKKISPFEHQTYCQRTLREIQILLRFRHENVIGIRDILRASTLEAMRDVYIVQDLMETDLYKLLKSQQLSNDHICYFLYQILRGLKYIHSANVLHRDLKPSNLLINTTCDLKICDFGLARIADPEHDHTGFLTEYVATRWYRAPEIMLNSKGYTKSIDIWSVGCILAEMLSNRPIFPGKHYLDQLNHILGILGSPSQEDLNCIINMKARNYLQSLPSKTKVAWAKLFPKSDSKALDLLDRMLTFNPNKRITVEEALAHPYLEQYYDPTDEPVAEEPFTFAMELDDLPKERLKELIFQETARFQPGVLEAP

[15] = system: Tyrosine-protein kinase ABL1 (Homo sapiens), P00519 [E255K]; assay: Inhibition of ABL1 E255K mutant phosphorylation (unknown origin) assessed as remaining activity at 10 uM by high-throughput assay relative to control
[16] = biological target: Focal adhesion kinase 1 (Homo sapiens) (UniProt Q05397); assay: Inhibition of FAK (unknown origin) assessed as remaining activity at 10 uM by high-throughput assay relative to control
[17] = biological target: Glycogen synthase kinase-3 beta (Homo sapiens) (UniProt P49841); assay: Inhibition of GSK3B (unknown origin) assessed as remaining activity at 10 uM by high-throughput assay relative to control
Chain of Glycogen synthase kinase-3 beta (Homo sapiens) (P49841 whole entry, looked up): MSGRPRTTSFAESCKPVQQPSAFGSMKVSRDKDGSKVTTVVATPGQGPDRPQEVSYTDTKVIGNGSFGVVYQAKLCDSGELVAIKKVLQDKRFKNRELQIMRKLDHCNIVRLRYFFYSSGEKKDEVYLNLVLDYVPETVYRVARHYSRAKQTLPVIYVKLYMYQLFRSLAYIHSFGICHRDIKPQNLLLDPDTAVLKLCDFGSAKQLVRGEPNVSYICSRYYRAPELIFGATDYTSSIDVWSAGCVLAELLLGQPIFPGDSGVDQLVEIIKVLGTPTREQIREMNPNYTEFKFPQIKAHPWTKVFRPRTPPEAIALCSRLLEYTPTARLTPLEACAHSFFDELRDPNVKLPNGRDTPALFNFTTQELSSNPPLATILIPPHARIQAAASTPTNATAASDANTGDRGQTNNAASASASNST

[18] = biological target: Mitogen-activated protein kinase kinase kinase 9 (Homo sapiens) (UniProt P80192); assay: Inhibition of MLK1 (unknown origin) assessed as remaining activity at 10 uM by high-throughput assay relative to control
[19] = biological target: Serine/threonine-protein kinase ULK2 (Homo sapiens) (UniProt Q8IYT8); assay: Inhibition of ULK2 (unknown origin) assessed as remaining activity at 10 uM by high-throughput assay relative to control
[20] = biological target: Serine/threonine-protein kinase DCLK1 (Homo sapiens) (UniProt O15075); assay: Inhibition of DCAMKL1 (unknown origin) assessed as remaining activity at 10 uM by high-throughput assay relative to control
Chain of Serine/threonine-protein kinase DCLK1 (Homo sapiens) (O15075 whole entry): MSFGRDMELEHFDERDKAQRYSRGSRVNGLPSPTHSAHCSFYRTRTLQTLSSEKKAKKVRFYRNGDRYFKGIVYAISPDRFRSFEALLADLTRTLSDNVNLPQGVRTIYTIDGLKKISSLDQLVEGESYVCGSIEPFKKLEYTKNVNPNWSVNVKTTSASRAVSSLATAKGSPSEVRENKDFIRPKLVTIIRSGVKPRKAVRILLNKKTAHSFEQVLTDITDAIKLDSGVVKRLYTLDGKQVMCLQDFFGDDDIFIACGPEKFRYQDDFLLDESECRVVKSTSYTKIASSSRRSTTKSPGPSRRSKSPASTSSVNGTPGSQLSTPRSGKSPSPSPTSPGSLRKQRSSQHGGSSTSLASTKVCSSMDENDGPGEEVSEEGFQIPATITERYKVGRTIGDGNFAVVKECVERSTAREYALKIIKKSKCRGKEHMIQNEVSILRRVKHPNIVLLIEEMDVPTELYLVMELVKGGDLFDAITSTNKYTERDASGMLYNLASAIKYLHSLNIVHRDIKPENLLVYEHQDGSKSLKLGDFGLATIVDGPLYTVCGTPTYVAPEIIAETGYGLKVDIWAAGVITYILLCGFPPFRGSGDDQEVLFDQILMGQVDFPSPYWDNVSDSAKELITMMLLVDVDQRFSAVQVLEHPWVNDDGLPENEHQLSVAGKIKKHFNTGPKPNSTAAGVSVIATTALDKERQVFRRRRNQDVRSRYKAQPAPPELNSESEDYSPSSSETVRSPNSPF

[21] = biological target: Serine/threonine-protein kinase PLK3 (Homo sapiens, UniProt Q9H4B4); assay: Inhibition of PLK3 (unknown origin) by radiometric analysis in presence of [gamma-33P]-ATP
[22] = biological target: Cyclin-dependent kinase 7 (Homo sapiens) (UniProt P50613); assay: Inhibition of CDK7 (unknown origin) assessed as remaining activity at 10 uM by high-throughput assay relative to control
[23] = biological target: Serine/threonine-protein kinase RIO2 (Homo sapiens) (UniProt Q9BVS4); assay: Inhibition of RIOK2 (unknown origin) assessed as remaining activity at 10 uM by high-throughput assay relative to control
[24] = biological target: Mitogen-activated protein kinase 11 (Homo sapiens) (UniProt Q15759); assay: Inhibition of p38-beta (unknown origin) assessed as remaining activity at 10 uM by high-throughput assay relative to control
[25] = biological target: Atypical kinase COQ8A, mitochondrial (Homo sapiens) (UniProt Q8NI60); assay: Inhibition of ADCK3 (unknown origin) assessed as remaining activity at 10 uM by high-throughput assay relative to control
Chain of Atypical kinase COQ8A, mitochondrial (Homo sapiens) (Q8NI60 163-647 limits assumed): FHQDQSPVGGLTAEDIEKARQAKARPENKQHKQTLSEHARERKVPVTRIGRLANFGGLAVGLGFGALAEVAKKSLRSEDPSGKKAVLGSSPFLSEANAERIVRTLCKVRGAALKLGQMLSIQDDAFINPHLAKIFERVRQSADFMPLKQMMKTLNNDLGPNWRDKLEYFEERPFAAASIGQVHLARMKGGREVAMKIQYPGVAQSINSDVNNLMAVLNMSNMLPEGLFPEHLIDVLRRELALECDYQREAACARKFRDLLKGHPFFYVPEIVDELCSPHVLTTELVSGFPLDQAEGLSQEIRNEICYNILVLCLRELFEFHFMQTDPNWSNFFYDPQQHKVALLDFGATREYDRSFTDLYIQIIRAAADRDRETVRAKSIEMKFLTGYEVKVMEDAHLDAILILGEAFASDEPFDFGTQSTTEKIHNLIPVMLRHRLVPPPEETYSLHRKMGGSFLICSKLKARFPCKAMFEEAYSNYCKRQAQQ

[26] = biological target: Fibroblast growth factor receptor 2 (Homo sapiens) (UniProt P21802); assay: Inhibition of FGFR2 (unknown origin) assessed as remaining activity at 10 uM by high-throughput assay relative to control
[27] = biological target: Platelet-derived growth factor receptor beta (Homo sapiens) (UniProt P09619); assay: Inhibition of PDGFRB (unknown origin) assessed as remaining activity at 10 uM by high-throughput assay relative to control
[28] = biological target: Casein kinase I isoform delta (Homo sapiens) (UniProt P48730); assay: Inhibition of CSNK1D (unknown origin) assessed as remaining activity at 10 uM by high-throughput assay relative to control
[29] = biological target: Cyclin-dependent kinase 2 (Homo sapiens) (UniProt P24941); assay: Inhibition of CDK2 (unknown origin) assessed as remaining activity at 10 uM by high-throughput assay relative to control
[30] = biological target: Cyclin-dependent kinase 16 (Homo sapiens) (UniProt Q00536); assay: Inhibition of PCTK1 (unknown origin) assessed as remaining activity at 10 uM by high-throughput assay relative to control
[31] = system: Tyrosine-protein kinase ABL1 (Homo sapiens), P00519 [T315I]; assay: Inhibition of ABL1 T315I mutant phosphorylation (unknown origin) assessed as remaining activity at 10 uM by high-throughput assay relative to control
[32] = biological target: Non-receptor tyrosine-protein kinase TYK2 (Homo sapiens) (UniProt P29597); assay: Inhibition of TYK2 JH1 catalytic domain (unknown origin) assessed as remaining activity at 10 uM by high-throughput assay relative to control

- Activity [1]: 99%
- Activity [2]: 91%
- Activity [3]: 98%
- Activity [4]: 83%
- Activity [5]: 42%
- Activity [6]: 82%
- Activity [7]: 93%
- Activity [8]: 73%
- Activity [9]: 74%
- Activity [10]: 82%
- Activity [11]: 91%
- Activity [12]: 59%
- Activity [13]: 99%
- Activity [14]: 87%
- Activity [15]: 93%
- Activity [16]: 90%
- Activity [17]: 77%
- Activity [18]: 74%
- Activity [19]: 59%
- Activity [20]: 78%
- IC50 [21]: 8.97 µM
- Activity [22]: 59%
- Activity [23]: 70%
- Activity [24]: 79%
- Activity [25]: 73%
- Activity [26]: 56%
- Activity [27]: 45%
- Activity [28]: 30%
- Activity [29]: 82%
- Activity [30]: 92%
- Activity [31]: 61%
- Activity [32]: 44%
SMILES: O=C1c2ccccc2-c2c1oc1ccccc1c2=O
